Data published in BindingDB's records for doi:10.1016/j.ejmech.2018.02.025 (Chia Tai Tianqing Pharmaceutical Group, 2018).
pEC50: −log10 of the molar value.

Key:
[1] = Inhibition of NS5A in HCV genotype 1a infected in human HuH7 replicon cells assessed as reduction in viral replication after 3 days by luciferase reporter gene assay
[2] = Inhibition of NS5A in HCV genotype 5a infected in human HuH7 replicon cells expressing HCV genotype 1b chimeric replicon assessed as reduction in viral replication after 3 days by luciferase reporter gene assay
[3] = Inhibition of NS5A in HCV genotype 6a infected in human HuH7 replicon cells expressing HCV genotype 1b chimeric replicon assessed as reduction in viral replication after 3 days by luciferase reporter gene assay
[4] = Inhibition of NS5A in HCV genotype 2a JFH-1 infected in human Huh7.5.1 cells assessed as reduction in viral replication after 3 days by luciferase reporter gene assay
[5] = Inhibition of NS5A in HCV genotype 1b infected in human HuH7 replicon cells assessed as reduction in viral replication after 3 days by luciferase reporter gene assay
[6] = Inhibition of NS5A in HCV genotype 3a infected in human HuH7 replicon cells expressing HCV genotype 1b chimeric replicon assessed as reduction in viral replication after 3 days by luciferase reporter gene assay

COC(=O)N[C@H](C(=O)N1CCC[C@H]1C(=O)Nc1ccc([C@@H]2CC[C@@H](c3ccc(NC(=O)[C@@H]4CCCN4C(=O)[C@@H](NC(=O)OC)C(C)C)cc3)N2c2ccc([Si](C)(C)C(C)(C)C)cc2)cc1)C(C)C
pEC50 [1]: 10.96 | pEC50 [2]: 12.00 | pEC50 [3]: 9.03 | pEC50 [4]: 11.96 | pEC50 [5]: 11.52 | pEC50 [6]: 10.92

COC(=O)N[C@H](C(=O)N1CCC[C@H]1C(=O)Nc1ccc([C@@H]2CC[C@@H](c3ccc(NC(=O)[C@@H]4CCCN4C(=O)[C@@H](NC(=O)OC)C(C)C)cc3)N2c2ccc([Si](C)(C)C)cc2)cc1)C(C)C
pEC50 [1]: 10.85 | pEC50 [2]: 12.00 | pEC50 [3]: 8.85 | pEC50 [4]: 11.60 | pEC50 [5]: 11.40 | pEC50 [6]: 10.42

COC(=O)N[C@H](C(=O)N1CCC[C@H]1C(=O)Nc1ccc([C@H]2CC[C@@H](c3ccc(NC(=O)[C@@H]4CCCN4C(=O)[C@@H](NC(=O)OC)C(C)C)cc3)N2c2ccc([Si](C)(C)C)cc2)cc1)C(C)C
pEC50 [1]: < 9.30 | pEC50 [5]: 11.10

CC[Si](CC)(CC)c1ccc(N2[C@H](c3ccc(NC(=O)[C@@H]4CCCN4C(=O)[C@@H](NC(=O)OC)C(C)C)cc3)CC[C@H]2c2ccc(NC(=O)[C@@H]3CCCN3C(=O)[C@@H](NC(=O)OC)C(C)C)cc2)cc1
pEC50 [1]: 11.15 | pEC50 [2]: 12.00 | pEC50 [3]: 9.35 | pEC50 [5]: 11.52 | pEC50 [6]: 11.00

CC[Si](CC)(CC)c1ccc(N2[C@@H](c3ccc(NC(=O)[C@@H]4CCCN4C(=O)[C@@H](NC(=O)OC)C(C)C)cc3)CC[C@H]2c2ccc(NC(=O)[C@@H]3CCCN3C(=O)[C@@H](NC(=O)OC)C(C)C)cc2)cc1
pEC50 [1]: < 9.30 | pEC50 [5]: 11.15

CC[Si](CC)(CC)c1ccc(N2[C@@H](c3ccc(NC(=O)[C@@H]4CCCN4C(=O)[C@@H](NC(=O)OC)C(C)C)cc3)CC[C@@H]2c2ccc(NC(=O)[C@@H]3CCCN3C(=O)[C@@H](NC(=O)OC)C(C)C)cc2)cc1
pEC50 [1]: 10.39 | pEC50 [5]: 11.22

COC(=O)N[C@H](C(=O)N1CCC[C@H]1C(=O)Nc1ccc([C@@H]2CC[C@@H](c3ccc(NC(=O)[C@@H]4CCCN4C(=O)[C@@H](NC(=O)OC)C(C)C)cc3)N2c2ccc(C(C)(C)C)cc2)cc1)C(C)C [CHEBI:85183]
pEC50 [1]: 10.52 | pEC50 [2]: 11.40 | pEC50 [3]: 8.47 | pEC50 [4]: 11.59 | pEC50 [5]: 11.30 | pEC50 [6]: 10.07

COC(=O)N[C@H](C(=O)N1CCC[C@H]1C(=O)Nc1ccc([C@H]2CC[C@H](c3ccc(NC(=O)[C@@H]4CCCN4C(=O)[C@@H](NC(=O)OC)C(C)C)cc3)N2c2ccc([Si](C)(C)C)cc2)cc1)C(C)C
pEC50 [1]: 9.93 | pEC50 [5]: 11.15
